The values that follow come from ChEMBL document CHEMBL3098059, “Identification by in silico and in vitro screenings of small organic molecules acting as reversible inhibitors of kallikreins” (Eur J Med Chem, 2013).

Active and inactive are the calls of the source. The calls are words filed in the database; no cut-off is given here.

The nature of data set [1]: Cytotoxicity against human keratinocytes assessed as cell viability at 1 uM after 24 to 48 hrs by neutral red assay. Format: cell-based. As to conditions: keratinocyte.
A short description of data set [2]: Cytotoxicity against human keratinocytes assessed as cell viability at 10 uM after 24 to 48 hrs by neutral red assay. Format: cell-based, Keratinocyte. The note with it: for Activity: keratinocyte, 10 µM.
Data set [3] has as its target T1, Kallikrein-7 (Homo sapiens, UniProt P49862). Description: Ratio of Ki for mixed-type inhibition of human kallikrein7 assessed as enzyme-substrate-inhibitor complex to Ki for mixed-type inhibition of human kallikrein7 assessed as enzyme-inhibitor complex.
Target sequence in this assay (P49862 30-253 limits assumed): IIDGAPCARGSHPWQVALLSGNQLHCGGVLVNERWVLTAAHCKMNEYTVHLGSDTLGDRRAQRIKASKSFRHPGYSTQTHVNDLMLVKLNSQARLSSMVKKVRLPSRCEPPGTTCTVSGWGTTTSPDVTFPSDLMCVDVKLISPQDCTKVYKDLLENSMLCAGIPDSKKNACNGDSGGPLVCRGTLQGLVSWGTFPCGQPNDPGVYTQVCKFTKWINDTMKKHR
Data set [4] has as its target T1, Kallikrein-7. Description: Mixed-type inhibition of human kallikrein7 using Suc-Leu-Leu-Val-Tyr-AMC as substrate assessed as enzyme-substrate-inhibitor complex after 15 to 60 mins by Lineweaver-Burk/Eadie-Hofstee plot analysis.
Target sequence in this assay (P49862 whole entry): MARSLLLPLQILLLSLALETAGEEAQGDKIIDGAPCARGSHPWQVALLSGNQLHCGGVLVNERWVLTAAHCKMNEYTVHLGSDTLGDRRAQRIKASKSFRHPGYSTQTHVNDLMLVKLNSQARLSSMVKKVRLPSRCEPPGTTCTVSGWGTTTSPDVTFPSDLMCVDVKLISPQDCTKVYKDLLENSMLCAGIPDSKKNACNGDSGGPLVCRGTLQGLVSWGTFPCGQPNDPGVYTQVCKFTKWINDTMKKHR
In data set [5] the target is T1, Kallikrein-7. Kind of data set: Mixed-type inhibition of human kallikrein7 using Suc-Leu-Leu-Val-Tyr-AMC as substrate assessed as enzyme-inhibitor complex after 15 to 60 mins by Lineweaver-Burk/Eadie-Hofstee plot analysis.
Target sequence in this assay (P49862 whole entry): as above
For data set [6], the target named is T2, Kallikrein-5 (Homo sapiens, UniProt Q9Y337).
T2 sequence (Q9Y337 whole entry): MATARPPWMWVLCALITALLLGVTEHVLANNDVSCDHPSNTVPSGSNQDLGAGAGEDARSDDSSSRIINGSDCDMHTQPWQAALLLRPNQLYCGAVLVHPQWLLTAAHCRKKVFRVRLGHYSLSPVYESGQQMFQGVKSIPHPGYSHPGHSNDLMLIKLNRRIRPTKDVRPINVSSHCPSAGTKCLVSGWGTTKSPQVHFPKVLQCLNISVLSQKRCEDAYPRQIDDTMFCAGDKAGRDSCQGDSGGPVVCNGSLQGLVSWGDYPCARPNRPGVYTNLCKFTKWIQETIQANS
Description: Competitive inhibition of human kallikrein5 using Boc-Val-Pro-Arg-AMC as substrate after 15 to 60 mins by Lineweaver-Burk/Eadie-Hofstee plot analysis.

Data set [7] concerns the target T3, Suppressor of tumorigenicity 14 protein (Homo sapiens) (UniProt Q9Y5Y6).
T3 sequence (whole entry): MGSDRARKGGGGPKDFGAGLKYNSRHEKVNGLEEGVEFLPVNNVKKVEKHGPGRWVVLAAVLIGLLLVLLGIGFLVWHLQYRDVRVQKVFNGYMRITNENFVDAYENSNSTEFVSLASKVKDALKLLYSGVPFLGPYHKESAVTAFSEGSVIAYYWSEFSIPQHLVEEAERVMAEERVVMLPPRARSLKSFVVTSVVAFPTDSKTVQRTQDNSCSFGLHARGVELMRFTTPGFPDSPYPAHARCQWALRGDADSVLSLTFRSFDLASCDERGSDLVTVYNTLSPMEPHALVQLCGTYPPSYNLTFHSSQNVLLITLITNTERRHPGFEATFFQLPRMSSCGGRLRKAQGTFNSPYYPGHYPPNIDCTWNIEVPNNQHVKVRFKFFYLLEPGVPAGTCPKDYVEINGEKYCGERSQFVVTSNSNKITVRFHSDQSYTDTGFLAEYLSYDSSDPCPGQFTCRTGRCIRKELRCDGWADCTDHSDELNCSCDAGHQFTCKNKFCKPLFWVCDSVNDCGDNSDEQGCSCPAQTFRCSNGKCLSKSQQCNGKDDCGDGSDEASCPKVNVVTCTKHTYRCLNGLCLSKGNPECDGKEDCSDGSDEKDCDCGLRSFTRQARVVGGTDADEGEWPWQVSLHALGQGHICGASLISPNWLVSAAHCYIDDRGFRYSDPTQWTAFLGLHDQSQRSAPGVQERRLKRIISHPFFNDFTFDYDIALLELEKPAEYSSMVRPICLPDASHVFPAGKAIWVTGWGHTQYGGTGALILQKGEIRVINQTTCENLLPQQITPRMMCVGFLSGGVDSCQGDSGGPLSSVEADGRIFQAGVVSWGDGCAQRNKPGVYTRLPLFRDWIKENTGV
Description: Reversible inhibition of matriptase (unknown origin) using Boc-Gln-Ala-Arg-AMC as substrate after 15 to 60 mins by fluorescence assay.

Data set [8] addresses T4, Kallikrein-14 (Homo sapiens) (UniProt Q9P0G3).
T4 sequence (whole entry): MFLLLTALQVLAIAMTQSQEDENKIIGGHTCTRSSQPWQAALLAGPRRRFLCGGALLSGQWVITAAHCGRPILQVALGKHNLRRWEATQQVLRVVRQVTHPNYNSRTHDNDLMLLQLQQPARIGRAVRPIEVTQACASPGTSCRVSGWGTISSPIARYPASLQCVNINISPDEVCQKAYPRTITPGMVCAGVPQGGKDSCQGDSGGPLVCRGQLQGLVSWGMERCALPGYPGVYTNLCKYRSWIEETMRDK
Description: Reversible inhibition of human kallikrein14 using Boc-Val-Pro-Arg-AMC as substrate after 15 to 60 mins by fluorescence assay.

In data set [9] the target is T1, Kallikrein-7. Kind of data set: Reversible inhibition of human kallikrein7 using Suc-Leu-Leu-Val-Tyr-AMC as substrate after 15 to 60 mins by fluorescence assay.
Target sequence in this assay (P49862 30-253 limits assumed): as the sequence (P49862 30-253 limits assumed) above
Data set [10] addresses Kallikrein-5 (Homo sapiens) (UniProt Q9Y337). Description: Reversible inhibition of human kallikrein5 using Boc-Val-Pro-Arg-AMC as substrate after 15 to 60 mins by fluorescence assay.
The target in data set [11] is T5, Suppressor of tumorigenicity 14 protein (Homo sapiens, UniProt Q9Y5Y6).
T5 sequence (Q9Y5Y6 whole entry): T3 sequence (whole entry)
Description: Inhibition of matriptase (unknown origin) using Boc-Gln-Ala-Arg-AMC as substrate after 15 mins by fluorescence assay.

In data set [12] the target is T6, Kallikrein-14 (Homo sapiens, UniProt Q9P0G3).
T6 sequence (Q9P0G3 whole entry): T4 sequence (whole entry)
Description: Inhibition of human kallikrein14 using Boc-Val-Pro-Arg-AMC as substrate after 15 mins by fluorescence assay.

The target in data set [13] is T1, Kallikrein-7. Kind of data set: Inhibition of human kallikrein7 using Suc-Leu-Leu-Val-Tyr-AMC as substrate after 15 mins by fluorescence assay.
Target sequence in this assay (P49862 whole entry): as the sequence (P49862 whole entry) above
Data set [14] addresses T2, Kallikrein-5. Kind of data set: Inhibition of human kallikrein5 using Boc-Val-Pro-Arg-AMC as substrate after 15 mins by fluorescence assay.
Data set [15] has as its target T3, Suppressor of tumorigenicity 14 protein (Homo sapiens). Kind of data set: Inhibition of matriptase (unknown origin) using Boc-Gln-Ala-Arg-AMC as substrate at 50 uM after 15 mins by fluorescence assay.
Data set [16] concerns the target T4, Kallikrein-14 (Homo sapiens). Description: Inhibition of human kallikrein14 using Boc-Val-Pro-Arg-AMC as substrate at 50 uM after 15 mins by fluorescence assay.
The target of data set [17] is T1, Kallikrein-7. Kind of data set: Inhibition of human kallikrein7 using Suc-Leu-Leu-Val-Tyr-AMC as substrate at 50 uM after 15 mins by fluorescence assay.
Target sequence in this assay (P49862 30-253 limits assumed): as the sequence (P49862 30-253 limits assumed) above
For data set [18], the target named is Kallikrein-5 (Homo sapiens) (UniProt Q9Y337). Description: Inhibition of human kallikrein5 using Boc-Val-Pro-Arg-AMC as substrate at 50 uM after 15 mins by fluorescence assay.

For `COc1ccc(/C=C2/SC(=O)N(CNc3cc(F)ccc3C)C2=O)cc1OC`, the Activity result in data set [1] and in data set [2] was “Non-toxic” in each case. In addition, the Ratio Ki in data set [3] came to 2. The Ki stood at 166 µM in data set [4], 83 µM in data set [5] and 95 µM in [6]. In addition, the inhibition entry in data set [7], in data set [8], in [9] and in [10] was “Active” throughout. Also, the IC50 was determined as 103 µM in data set [11], 112 µM in data set [12], 106 µM in data set [13] and 117 µM in [14].
`O=c1c2ccccc2nc(CSc2[nH]cnc3ncnc2-3)n1-c1cccc(C(F)(F)F)c1`: the inhibition result in data set [7], in data set [8], in [9] and in [10] was “Active” in each case. Also, the inhibition in [15], in data set [16], in data set [17] and in data set [18] was below 30% throughout.
Regarding `COc1ccc(/C=C/C(=O)c2ccc(O)cc2)cc1COc1ccc(Cl)cc1`, the viability at 10 µM in data set [2] (keratinocytes, read-out: Activity) came out at 30%. Moreover, the inhibition entry in data set [7], in data set [8], in data set [9] and in [10] was “Active” throughout. The figures for the IC50 in [11] and in data set [12] were 138 µM and 122 µM, respectively. Besides, the inhibition in [17] and in data set [18] was below 30% throughout.
Regarding `CCOc1cc(/C=C(/C#N)C(=O)Nc2ccc(O)cc2)ccc1OC`, the inhibition entry in [7], in data set [8], in data set [9] and in data set [10] was “Active” throughout. For the same compound, the inhibition in data set [15], in data set [16], in data set [17] and in [18] was below 30% throughout.
For `COc1ccc(NC(=O)/C(C#N)=C\c2ccc(O)c(OC)c2)cc1`, the Ratio Ki in data set [3] was 2. Moreover, the values for the Ki in [4], in [5] and in data set [6] were 164 µM, 72 µM and 100 µM, respectively. Besides, the inhibition entry in data set [7], in [8], in data set [9] and in [10] was “Active” in each case. The IC50 in data set [11] amounted to 120 µM; in data set [12], 99 µM; in [13] it was 90 µM; in [14], 127 µM.
For the compound `CCOc1cc(/C=C(/C#N)C(=O)Nc2ccc(O)cc2)ccc1O`, the Activity result in data set [1] and in data set [2] was “Non-toxic” throughout. Moreover, the Ratio Ki in [3] worked out at 2. Moreover, the Ki stood at 152 µM in data set [4], 75 µM in [5] and 107 µM in [6]. The inhibition entry in data set [7], in data set [8], in [9] and in [10] was “Active” in each case. Further, the IC50 in data set [11] amounted to 98 µM; in data set [12] it was 101 µM; in [13], 94 µM; in [14] it was 117 µM.
Regarding `COc1cc(/C=C(/C#N)c2nc3ccccc3[nH]2)ccc1OCc1ccccc1`, the inhibition entry in [7], in data set [8], in data set [9] and in data set [10] was “Active” in each case. The inhibition in [15], in data set [16], in data set [17] and in data set [18] was below 30% in each case.
For `COc1cc(/C=C(/C#N)C(=O)Nc2ccc(O)cc2)ccc1O`, the Ratio Ki in data set [3] stood at 2. The Ki came to 129 µM in data set [4], 70 µM in data set [5] and 112 µM in [6]. For the same compound, the inhibition entry in data set [7], in data set [8], in [9] and in [10] was “Active” throughout. For the same compound, the half-maximal inhibitory concentration (IC50) in data set [11] is 111 µM; in [12], 106 µM; in data set [13], 107 µM; in data set [14], 131 µM.
For `CCOc1ccc(/C=C(/C#N)C(=O)Nc2ccc(O)cc2)cc1OC`, the inhibition entry in data set [7], in data set [8], in data set [9] and in data set [10] was “Active” throughout. The inhibition in data set [15], in [16], in data set [17] and in data set [18] was below 30% each time.
On to `CCOc1cccc(NC(=O)/C(C#N)=C\c2ccc(O)c(OC)c2)c1`, for which the inhibition entry in [7], in data set [8], in data set [9] and in [10] was “Active” in each case. For the same compound, the inhibition in [15], in data set [16], in data set [17] and in data set [18] was below 30% throughout.
As to `O=c1c2ccccc2nc(CSc2ccccn2)n1-c1cccc(C(F)(F)F)c1`, the inhibition entry in [7], in data set [8], in data set [9] and in [10] was “Active” throughout. The inhibition in data set [15], in data set [16], in data set [17] and in data set [18] was below 30% in each case.
In the case of `CCOc1cccc(NC(=O)/C(C#N)=C\c2ccc(O)cc2)c1`, the inhibition result in data set [7], in data set [8], in data set [9] and in data set [10] was “Active” each time. Besides, the inhibition in data set [15], in data set [16], in data set [17] and in data set [18] was below 30% in each case.
